Experimental data taken from ChEMBL document CHEMBL3817791, “Discovery of 4-(4-aminopyrazolo[1,5-a][1,3,5]triazin-8-yl)benzamides as novel, highly potent and selective, orally bioavailable inhibitors of Tyrosine Threonine Kinase, TTK” (Bioorg Med Chem Lett, 2016).

T1: Dual specificity protein kinase TTK (Homo sapiens, UniProt P33981)
T1 sequence (P33981 whole entry): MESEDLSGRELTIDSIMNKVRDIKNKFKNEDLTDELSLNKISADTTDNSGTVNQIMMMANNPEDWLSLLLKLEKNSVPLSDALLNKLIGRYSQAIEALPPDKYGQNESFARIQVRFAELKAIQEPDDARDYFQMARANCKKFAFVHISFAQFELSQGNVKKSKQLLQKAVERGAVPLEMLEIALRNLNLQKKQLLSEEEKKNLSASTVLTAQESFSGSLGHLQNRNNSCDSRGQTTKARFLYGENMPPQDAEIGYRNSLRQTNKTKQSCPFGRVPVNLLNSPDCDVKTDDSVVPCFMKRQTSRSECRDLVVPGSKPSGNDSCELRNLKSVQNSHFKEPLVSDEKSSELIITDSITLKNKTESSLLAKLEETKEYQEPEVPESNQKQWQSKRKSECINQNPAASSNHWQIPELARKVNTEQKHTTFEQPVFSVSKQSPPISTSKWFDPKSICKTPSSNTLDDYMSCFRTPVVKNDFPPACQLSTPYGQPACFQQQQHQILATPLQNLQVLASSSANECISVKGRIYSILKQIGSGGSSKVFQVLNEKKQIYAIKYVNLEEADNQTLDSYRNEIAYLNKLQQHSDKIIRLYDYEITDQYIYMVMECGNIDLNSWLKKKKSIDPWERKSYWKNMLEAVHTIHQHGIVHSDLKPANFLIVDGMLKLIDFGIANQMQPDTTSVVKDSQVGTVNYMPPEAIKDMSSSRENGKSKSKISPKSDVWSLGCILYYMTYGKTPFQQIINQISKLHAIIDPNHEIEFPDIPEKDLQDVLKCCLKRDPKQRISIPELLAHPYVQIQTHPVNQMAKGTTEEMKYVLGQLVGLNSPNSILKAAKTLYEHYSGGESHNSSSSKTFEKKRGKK


Columns and labels:
[1] = Antiproliferative activity against human HCT116 cells; assay type: functional; settings: HCT-116
[2] = system: MDA-MB-231; assay: Antiproliferative activity against human MDA-MB-231 cells; assay type: functional
[3] = target: T1, Dual specificity protein kinase TTK; assay: Inhibition of TTK (unknown origin)
[4] = Antiproliferative activity against human OVCAR3 cells; assay type: functional; settings: OVCAR-3
[5] = system: MDA-MB-468; assay: Antiproliferative activity against human MDA-MB-468 cells; assay type: functional
[6] = system: HT-29; assay: Antiproliferative activity against human HT-29 cells; assay type: functional
[7] = Antiproliferative activity against human PA1 cells; assay type: functional; settings: PA-1
[8] = Half life in mouse microsomes; assay type: ADME, Microsome
[9] = AUC in mouse at 10 mg/kg, po; assay type: ADME, organism-based; settings: in vivo
[10] = Half life in human microsomes; assay type: ADME, Microsome
[11] = Half life in rat microsomes; assay type: ADME, Microsome
[12] = Cmax in mouse at 10 mg/kg, po; assay type: ADME, organism-based; design: dose 10 mg/kg, route oral; settings: in vivo
[13] = target: Cytochrome P450 3A4 (Homo sapiens, UniProt P08684); assay: Inhibition of CYP3A4 (unknown origin); assay type: ADME
[14] = target: Rho-associated protein kinase 2 (Homo sapiens) (UniProt O75116); assay: Inhibition of recombinant human N-terminal His6-tagged ROCK2 (11 to 552 residues) expressed in baculovirus infected Sf21 cells at 1 uM by radiometric assay relative to control
[15] = substrate: Cc1cc(-c2cnn3c(NCC4CCOCC4)nc(Oc4ccccc4)nc23)ccc1C(=O)NC1CC1; settings: Homo sapiens
Description: Inhibition of TTK (unknown origin) assessed as substrate Km(app) at 1.5 nM by double reciprocal plot analysis (Rvb = 8.4 uM)

[16] = substrate: Cc1cc(-c2cnn3c(NCC4CCOCC4)nc(Oc4ccccc4)nc23)ccc1C(=O)NC1CC1; settings: Homo sapiens; remark: listed apart in the source
Description: Inhibition of TTK (unknown origin) assessed as substrate Km(app) at 4.5 nM by double reciprocal plot analysis (Rvb = 8.4 uM)

[17] = substrate: Cc1cc(-c2cnn3c(NCC4CCOCC4)nc(Oc4ccccc4)nc23)ccc1C(=O)NC1CC1; settings: Homo sapiens; remark: listed apart in the source
Description: Inhibition of TTK (unknown origin) assessed as substrate Km(app) at 7.5 nM by double reciprocal plot analysis (Rvb = 8.4 uM)

Cytochrome P450 3A4, sequence (P08684 whole entry, the tested form may be a part): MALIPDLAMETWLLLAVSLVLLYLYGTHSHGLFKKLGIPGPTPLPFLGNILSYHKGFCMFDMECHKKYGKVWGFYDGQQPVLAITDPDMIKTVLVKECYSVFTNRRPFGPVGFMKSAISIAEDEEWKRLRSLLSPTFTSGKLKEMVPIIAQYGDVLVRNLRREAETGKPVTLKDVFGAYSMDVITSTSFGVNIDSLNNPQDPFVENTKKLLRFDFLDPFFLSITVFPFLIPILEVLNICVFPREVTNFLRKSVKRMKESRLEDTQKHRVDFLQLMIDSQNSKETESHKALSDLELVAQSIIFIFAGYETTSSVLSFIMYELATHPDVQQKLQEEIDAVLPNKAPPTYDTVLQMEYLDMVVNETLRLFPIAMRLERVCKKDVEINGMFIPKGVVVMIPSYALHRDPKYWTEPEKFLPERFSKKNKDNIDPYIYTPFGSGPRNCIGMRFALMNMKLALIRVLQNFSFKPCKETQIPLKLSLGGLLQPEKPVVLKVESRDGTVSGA
Rho-associated protein kinase 2 (Homo sapiens), sequence (O75116 whole entry, looked up, the tested form may be a part): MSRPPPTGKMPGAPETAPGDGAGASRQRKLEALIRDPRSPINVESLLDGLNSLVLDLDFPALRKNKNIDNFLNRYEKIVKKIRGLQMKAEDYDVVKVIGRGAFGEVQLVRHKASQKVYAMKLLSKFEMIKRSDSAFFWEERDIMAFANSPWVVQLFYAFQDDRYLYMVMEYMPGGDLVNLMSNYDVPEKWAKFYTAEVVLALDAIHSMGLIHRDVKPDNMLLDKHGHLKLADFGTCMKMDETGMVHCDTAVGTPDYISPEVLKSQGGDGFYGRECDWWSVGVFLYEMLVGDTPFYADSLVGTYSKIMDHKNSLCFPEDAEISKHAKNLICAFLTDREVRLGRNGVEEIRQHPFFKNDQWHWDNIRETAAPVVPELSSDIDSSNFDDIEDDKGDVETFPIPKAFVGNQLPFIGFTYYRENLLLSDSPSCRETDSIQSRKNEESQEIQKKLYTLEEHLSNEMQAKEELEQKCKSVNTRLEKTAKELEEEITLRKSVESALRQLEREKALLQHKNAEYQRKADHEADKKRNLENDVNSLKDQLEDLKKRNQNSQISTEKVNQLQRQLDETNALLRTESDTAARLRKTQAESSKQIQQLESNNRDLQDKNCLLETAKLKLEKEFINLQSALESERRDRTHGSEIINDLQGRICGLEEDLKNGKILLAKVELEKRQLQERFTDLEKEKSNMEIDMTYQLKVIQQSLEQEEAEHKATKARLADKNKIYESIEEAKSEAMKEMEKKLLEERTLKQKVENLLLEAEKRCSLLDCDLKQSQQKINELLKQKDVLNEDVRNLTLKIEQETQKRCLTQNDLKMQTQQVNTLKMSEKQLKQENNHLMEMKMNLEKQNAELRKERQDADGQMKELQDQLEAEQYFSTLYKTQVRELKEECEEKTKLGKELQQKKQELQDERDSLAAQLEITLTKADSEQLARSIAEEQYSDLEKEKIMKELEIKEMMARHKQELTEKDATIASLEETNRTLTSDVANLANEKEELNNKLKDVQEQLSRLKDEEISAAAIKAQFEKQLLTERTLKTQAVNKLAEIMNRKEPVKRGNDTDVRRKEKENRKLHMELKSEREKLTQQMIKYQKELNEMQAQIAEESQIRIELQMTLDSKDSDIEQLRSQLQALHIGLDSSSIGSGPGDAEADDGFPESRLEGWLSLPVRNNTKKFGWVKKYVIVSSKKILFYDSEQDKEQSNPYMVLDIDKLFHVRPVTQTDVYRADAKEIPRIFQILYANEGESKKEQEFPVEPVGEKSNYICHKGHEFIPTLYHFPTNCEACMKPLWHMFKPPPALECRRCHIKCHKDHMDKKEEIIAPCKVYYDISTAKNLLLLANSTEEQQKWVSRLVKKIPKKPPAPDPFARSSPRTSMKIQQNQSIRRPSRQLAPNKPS

| Molecule | GI50 [2] | IC50 [3] | GI50 [1] | GI50 [4] | other results |
| --- | --- | --- | --- | --- | --- |
| Cc1cc(-c2cnn3c(NCC4CCOCC4)nc(NC4CCCC4)nc23)ccc1NC(=O)C1CC1 | – | 2000 nM | – | – | – |
| Cc1cc(-c2cnn3c(NCCN4CCOCC4)nc(Oc4cccc(F)c4F)nc23)ccc1C(=O)NC1CC1 | 40 nM | 2.2 nM | 14 nM | 170 nM | GI50 [5]: 150 nM; GI50 [6]: 21 nM; GI50 [7]: 17 nM |
| O=C(N[C@@H](c1ccccn1)C1CC1)c1ccc2[nH]nc(-c3ccc(N4C5CCC4CC(O)C5)cc3)c2c1 (stereo not given in full) | – | – | – | – | inhibition [14]: 50% |
| Cc1cc(-c2cnn3c(NCC4CCOCC4)nc(NC4CCCCC4)nc23)ccc1C(=O)NC1CC1 | 270 nM | 2.6 nM | 170 nM | 470 nM | – |
| CC(C)C(=O)Nc1ccc(-c2cnn3c(NCC4CCOCC4)nc(OC4CCCC4)nc23)cc1 | – | 1700 nM | – | – | – |
| CN(c1nc(NCC2CCOCC2)n2ncc(-c3ccc(C(=O)NC4CC4)c(F)c3)c2n1)C1CCCCC1 | – | 15 nM | – | – | – |
| O=C(NC1CC1)c1ccc(-c2cnn3c(NCC4CCOCC4)nc(NC4CCCC4)nc23)cc1 | 690 nM | 10 nM | 390 nM | 1700 nM | – |
| Cc1cc(-c2cnn3c(NCC4CCOCC4)nc(NC4CCOCC4)nc23)ccc1C(=O)NC1CC1 | 540 nM | 9 nM | 280 nM | 780 nM | – |
| CC(C)NC(=O)c1ccc(-c2cnn3c(NCC4CCOCC4)nc(OC4CCCC4)nc23)cc1 | – | 230 nM | – | – | – |
| Dual specificity protein kinase TTK (Homo sapiens), P33981 (protein) MESEDLSGRELTIDSIMNKVRDIKNKFKNEDLTDELSLNKISADTTDNSGTVNQIMMMANNPEDWLSLLLKLEKNSVPLSDALLNKLIGRYSQAIEALPPDKYGQNESFARIQVRFAELKAIQEPDDARDYFQMARANCKKFAFVHISFAQFELSQGNVKKSKQLLQKAVERGAVPLEMLEIALRNLNLQKKQLLSEEEKKNLSASTVLTAQESFSGSLGHLQNRNNSCDSRGQTTKARFLYGENMPPQDAEIGYRNSLRQTNKTKQSCPFGRVPVNLLNSPDCDVKTDDSVVPCFMKRQTSRSECRDLVVPGSKPSGNDSCELRNLKSVQNSHFKEPLVSDEKSSELIITDSITLKNKTESSLLAKLEETKEYQEPEVPESNQKQWQSKRKSECINQNPAASSNHWQIPELARKVNTEQKHTTFEQPVFSVSKQSPPISTSKWFDPKSICKTPSSNTLDDYMSCFRTPVVKNDFPPACQLSTPYGQPACFQQQQHQILATPLQNLQVLASSSANECISVKGRIYSILKQIGSGGSSKVFQVLNEKKQIYAIKYVNLEEADNQTLDSYRNEIAYLNKLQQHSDKIIRLYDYEITDQYIYMVMECGNIDLNSWLKKKKSIDPWERKSYWKNMLEAVHTIHQHGIVHSDLKPANFLIVDGMLKLIDFGIANQMQPDTTSVVKDSQVGTVNYMPPEAIKDMSSSRENGKSKSKISPKSDVWSLGCILYYMTYGKTPFQQIINQISKLHAIIDPNHEIEFPDIPEKDLQDVLKCCLKRDPKQRISIPELLAHPYVQIQTHPVNQMAKGTTEEMKYVLGQLVGLNSPNSILKAAKTLYEHYSGGESHNSSSSKTFEKKRGKK | – | – | – | – | Km [15]: 17.4 µM; Km [16]: 39 µM; Km [17]: 63.4 µM |

Second part, led by results:

| GI50 [2] | IC50 [3] | Molecule | GI50 [1] | GI50 [4] | other results |
| --- | --- | --- | --- | --- | --- |
| 960 nM | 24 nM | O=C(NC1CC1)c1ccc(-c2cnn3c(NCCN4CCOCC4)nc(Oc4ccccc4)nc23)cc1 | 880 nM | 410 nM | – |
| 350 nM | 4.9 nM | O=C(NC1CC1)c1ccc(-c2cnn3c(NCC4CCOCC4)nc(Oc4ccccc4)nc23)cc1 | 200 nM | 910 nM | – |
| 1600 nM | 8.4 nM | CC(=O)Nc1cccc(Oc2nc(NCC3CCOCC3)n3ncc(-c4ccc(C(=O)NC5CC5)c(C)c4)c3n2)c1 | 1300 nM | 1200 nM | – |
| 12 nM | 0.4 nM | Cc1cc(-c2cnn3c(NCC4CCOCC4)nc(Oc4cccc(F)c4F)nc23)ccc1C(=O)NC1CC1 | 9 nM | 37 nM | half-life [8]: 28 min; AUC [9]: 4000 ng·h/mL; half-life [10]: > 60 min; half-life [11]: 40 min; Cmax [12]: 1600 ng/mL; IC50 [13]: > 20000 nM |
| 230 nM | 2.3 nM | Cc1cc(-c2cnn3c(NCC4CCOCC4)nc(OC4CCCC4)nc23)ccc1C(=O)NC1CC1 | 160 nM | 590 nM | – |
| 1200 nM | 11 nM | Cc1cc(-c2cnn3c(NCC4CCOCC4)nc(Nc4ccccc4)nc23)ccc1C(=O)NC1CC1 | 690 nM | 1700 nM | – |
| 230 nM | 1.7 nM | O=C(NC1CC1)c1ccc(-c2cnn3c(NCC4CCOCC4)nc(Oc4ccccc4)nc23)cc1Cl | 160 nM | 400 nM | – |
| 1400 nM | 7 nM | O=C(NC1CC1)c1ccc(-c2cnn3c(NCC4CCOCC4)nc(NC4CCCC4)nc23)cc1F | 850 nM | 1700 nM | – |
| – | 14 nM | COCCNc1nc(Oc2ccccc2)nc2c(-c3ccc(C(=O)NC4CC4)cc3)cnn12 | – | – | – |
| 450 nM | 32 nM | O=C(NC1CC1)c1ccc(-c2cnn3c(NCC4CCOCC4)nc(N4CCOCC4)nc23)cc1Cl | 440 nM | 70 nM | – |
| 170 nM | – | Cc1cc(-c2cnn3c(NCC4CCOCC4)nc(NC4CCCC4)nc23)ccc1C(=O)NC1CC1 | 130 nM | 480 nM | half-life [8]: 14 min; half-life [10]: > 60 min; half-life [11]: 11 min; GI50 [5]: 320 nM; GI50 [6]: 84 nM; IC50 [13]: 19000 nM; GI50 [7]: 53 nM |
